Test results taken from patent US20100291592A1, “NOVEL MARKER FOR SENSITIVITY AGAINST SULFONAMIDE COMPOUND” (priority 2006, published 2010).

Test system: EGFR1
Experiment: EGFR1 expression level in PC9 subcutaneous transplant model (immunohistochemical staining)
Type: in vivo
Conditions: PC9 tumors in nude mice, 25, 50, 100 or 200 mg/kg orally twice a day for 7 days, versus unadministered group
Description: PC9 was cultured in RPMI1640 (containing 10% FBS) in a 5% carbon dioxide incubator at 37° C. The cultured human tumor cells (PC9) (8×10^6 cells/mouse) were subcutaneously transplanted into nude mice (KSN mice from SLC). Once proliferation of the tumors transplanted into the mice was observed, E7820 was orally administered to the mice for 0 mg/kg (unadministered), 25 mg/kg, 50 mg/kg, 100 mg/kg or 200 mg/kg twice a day for 7 days. Following 7 days of administration, tumor tissues were removed from the mice, fixed with formalin and embedded in paraffin. Subsequently, the paraffin-embedded tumor tissues were sliced into a thickness of 6 μm, placed on glass slides and deparaffinized with xylene/ethanol. Then, these sections were treated with […] (Roche), and subjected to immunostaining according to the protocol of Simple Stain kit: mouse MAX-PO (M) (NICHIREI) using an anti-EGFR antibody (DakoCytomation). Referring to FIG. 5, (a) to (f) show stain with control IgG (negative control), E7820-unadministered group, E7820-administered group (25 mg/kg), E7820-administered group (50 mg/kg), E7820-administered group (100 mg/kg) and E7820-administered group (200 mg/kg), respectively. Each panel was enlarged twenty times. […] This proves that E7820 also exerts an anti-tumor effect at tissue level by decreasing the EGFR1 expression level. […]

## Cc1ccc(NS(=O)(=O)c2cccc(C#N)c2)c2[nH]cc(C#N)c12 [E7820, N-(3-cyano-4-methyl-1H-indole-7-yl)-3-cyanobenzenesulfonamide]
  Effect on EGFR1 expression level (immunohistochemical staining, in words): decrease in the EGFR1 expression level was significant
